Reference: the supplement of paper PMC10307832

Columns and labels:
Test in all cases: relative viability (nuclei count vs DMSO), 5 days (fraction); higher = more cells survive
[1] = system: BEN
Procedure, shortened: (§1)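 Lung cancer cell lines were seeded in 1536-well plates and dosed by pin tool the next day, with either a single drug or a fixed anchor-drug dose combined with five library-drug doses (not always all listed) spaced in √10 steps. Five days later, one step fixed the cells and stained their nuclei (final 0.05% Triton X-100, 1% formaldehyde, 1 ug/ml Hoechst), and nuclei were counted on 4× images. Relative viability is the nuclei count in treated wells divided by the count in vehicle wells, and each value is the median of duplicate plates.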

[2] = system: CAL-12T
Procedure, shortened: as §1

[3] = system: H3255
Procedure, shortened: as §1

[4] = system: HARA
Procedure, shortened: as §1

[5] = system: HCC-15
Procedure, shortened: as §1

[6] = system: HCC-827
Procedure, shortened: as §1

[7] = system: LC-2-ad
Procedure, shortened: as §1

[8] = system: LCLC-103H
Procedure, shortened: as §1

[9] = system: LOU-NH91
Procedure, shortened: as §1

[10] = system: LU99A
Procedure, shortened: as §1

[11] = system: NCI-H1666
Procedure, shortened: as §1

[12] = system: NCI-H1755
Procedure, shortened: as §1

[13] = system: NCI-H1993
Procedure, shortened: as §1

[14] = system: NCI-H2085
Procedure, shortened: as §1

[15] = system: NCI-H2170
Procedure, shortened: as §1

[16] = system: NCI-H2228
Procedure, shortened: as §1

[17] = system: NCI-H2342
Procedure, shortened: as §1

[18] = system: NCI-H23
Procedure, shortened: as §1

[19] = system: PC-3 [JPC-3]
Procedure, shortened: as §1

[20] = system: RERF-LC-KJ
Procedure, shortened: as §1

[21] = system: SK-LU-1
Procedure, shortened: as §1

Cc1cn(-c2cc(NC(=O)c3ccc(C)c(Nc4nccc(-c5cccnc5)n4)c3)cc(C(F)(F)F)c2)cn1 [Nilotinib] + Nc1nc2[nH]cc(CCc3ccc(C(=O)N[C@@H](CCC(=O)O)C(=O)O)cc3)c2c(=O)[nH]1 [Pemetrexed] (partner 0.2 µM)
relative viability ([1]; first compound 0.001 µM): 0.868 | relative viability ([1]; first compound 0.003162 µM): 0.715 | relative viability ([1]; first compound 0.01 µM): 0.614 | relative viability ([1]; first compound 0.03162 µM): 0.772 | relative viability ([1]; first compound 0.1 µM): 0.469 | relative viability ([2]; first compound 0.001 µM): 0.977 | relative viability ([2]; first compound 0.003162 µM): 1.48 | relative viability ([2]; first compound 0.01 µM): 1.34 | relative viability ([2]; first compound 0.03162 µM): 0.992 | relative viability ([2]; first compound 0.1 µM): 1.22 | relative viability ([3]; first compound 0.001 µM): 0.528 | relative viability ([3]; first compound 0.003162 µM): 0.671 | relative viability ([3]; first compound 0.01 µM): 0.578 | relative viability ([3]; first compound 0.03162 µM): 0.579 | relative viability ([3]; first compound 0.1 µM): 0.523 | relative viability ([4]; first compound 0.001 µM): 0.311 | relative viability ([4]; first compound 0.003162 µM): 0.235 | relative viability ([4]; first compound 0.01 µM): 0.198 | relative viability ([4]; first compound 0.03162 µM): 0.184 | relative viability ([4]; first compound 0.1 µM): 0.214 | relative viability ([5]; first compound 0.001 µM): 0.213 | relative viability ([5]; first compound 0.003162 µM): 0.205 | relative viability ([5]; first compound 0.01 µM): 0.204 | relative viability ([5]; first compound 0.03162 µM): 0.18 | relative viability ([5]; first compound 0.1 µM): 0.162 | relative viability ([6]; first compound 0.001 µM): 0.272 | relative viability ([6]; first compound 0.003162 µM): 0.224 | relative viability ([6]; first compound 0.03162 µM): 0.217 | relative viability ([6]; first compound 0.1 µM): 0.245 | relative viability ([7]; first compound 0.001 µM): 0.248 | relative viability ([7]; first compound 0.003162 µM): 0.251 | relative viability ([7]; first compound 0.01 µM): 0.257 | relative viability ([7]; first compound 0.03162 µM): 0.251 | relative viability ([7]; first compound 0.1 µM): 0.248 | relative viability ([8]; first compound 0.001 µM): 0.447 | relative viability ([8]; first compound 0.003162 µM): 0.409 | relative viability ([8]; first compound 0.01 µM): 0.438 | relative viability ([8]; first compound 0.03162 µM): 0.467 | relative viability ([8]; first compound 0.1 µM): 0.351 | relative viability ([9]; first compound 0.001 µM): 0.376 | relative viability ([9]; first compound 0.003162 µM): 1.11 | relative viability ([9]; first compound 0.01 µM): 0.374 | relative viability ([9]; first compound 0.03162 µM): 0.384 | relative viability ([9]; first compound 0.1 µM): 0.403 | relative viability ([10]; first compound 0.001 µM): 0.158 | relative viability ([10]; first compound 0.003162 µM): 0.202 | relative viability ([10]; first compound 0.01 µM): 0.177 | relative viability ([10]; first compound 0.03162 µM): 0.225 | relative viability ([10]; first compound 0.1 µM): 0.155 | relative viability ([11]; first compound 0.001 µM): 0.768 | relative viability ([11]; first compound 0.003162 µM): 0.78 | relative viability ([11]; first compound 0.01 µM): 0.846 | relative viability ([11]; first compound 0.03162 µM): 0.717 | relative viability ([11]; first compound 0.1 µM): 0.9 | relative viability ([12]; first compound 0.001 µM): 0.41 | relative viability ([12]; first compound 0.003162 µM): 0.383 | relative viability ([12]; first compound 0.01 µM): 0.328 | relative viability ([12]; first compound 0.03162 µM): 0.306 | relative viability ([12]; first compound 0.1 µM): 0.361 | relative viability ([13]; first compound 0.001 µM): 0.574 | relative viability ([13]; first compound 0.003162 µM): 0.685 | relative viability ([13]; first compound 0.01 µM): 0.649 | relative viability ([13]; first compound 0.03162 µM): 0.589 | relative viability ([13]; first compound 0.1 µM): 0.367 | relative viability ([14]; first compound 0.001 µM): 0.981 | relative viability ([14]; first compound 0.003162 µM): 0.907 | relative viability ([14]; first compound 0.01 µM): 1 | relative viability ([14]; first compound 0.03162 µM): 0.932 | relative viability ([14]; first compound 0.1 µM): 0.562 | relative viability ([15]; first compound 0.001 µM): 0.265 | relative viability ([15]; first compound 0.003162 µM): 0.261 | relative viability ([15]; first compound 0.03162 µM): 0.252 | relative viability ([15]; first compound 0.1 µM): 0.315 | relative viability ([16]; first compound 0.001 µM): 0.358 | relative viability ([16]; first compound 0.003162 µM): 0.357 | relative viability ([16]; first compound 0.01 µM): 0.282 | relative viability ([16]; first compound 0.03162 µM): 0.216 | relative viability ([16]; first compound 0.1 µM): 0.165 | relative viability ([17]; first compound 0.001 µM): 0.718 | relative viability ([17]; first compound 0.003162 µM): 0.753 | relative viability ([17]; first compound 0.01 µM): 0.793 | relative viability ([17]; first compound 0.03162 µM): 0.718 | relative viability ([17]; first compound 0.1 µM): 0.428 | relative viability ([18]; first compound 0.001 µM): 0.739 | relative viability ([18]; first compound 0.003162 µM): 0.553 | relative viability ([18]; first compound 0.01 µM): 0.494 | relative viability ([18]; first compound 0.03162 µM): 0.575 | relative viability ([18]; first compound 0.1 µM): 0.368 | relative viability ([19]; first compound 0.001 µM): 1.02 | relative viability ([19]; first compound 0.01 µM): 0.889 | relative viability ([19]; first compound 0.03162 µM): 1.05 | relative viability ([19]; first compound 0.1 µM): 0.599 | relative viability ([20]; first compound 0.001 µM): 0.508 | relative viability ([20]; first compound 0.003162 µM): 0.6 | relative viability ([20]; first compound 0.01 µM): 0.454 | relative viability ([20]; first compound 0.03162 µM): 0.422 | relative viability ([20]; first compound 0.1 µM): 0.274 | relative viability ([21]; first compound 0.001 µM): 0.867 | relative viability ([21]; first compound 0.003162 µM): 1.09 | relative viability ([21]; first compound 0.01 µM): 0.949 | relative viability ([21]; first compound 0.03162 µM): 0.524 | relative viability ([21]; first compound 0.1 µM): 0.415
